Measurements as given in BindingDB's records for doi:10.1016/S0960-894X(96)00246-6 (1996).
pIC50: −log10 of the molar value.

experiment: Inhibition of ADP-induced human platelet aggregation

| pIC50 | SMILES |
| --- | --- |
| 5.35 | COc1ccc(C[C@H](NC(=O)[C@H](CC(=O)O)NC(=O)CCCCOc2ccc(C(=N)N)cc2)C(=O)O)cc1 [(S)-3-[5-(4-Carbamimidoyl-phenoxy)-pentanoylamino]-N-[(S)-1-carboxy-2-(4-methoxy-phenyl)-ethyl]-succinamic acid] |
| 7.00 | CC(C)[C@H](NC(=O)[C@H](CC(=O)O)NC(=O)CCCOc1ccc(C(=N)N)cc1)C(=O)O [2-{2-[4-(4-Carbamimidoyl-phenoxy)-butyrylamino]-3-carboxy-propionylamino}-3-methyl-butyric acid (FK633)] |
| 6.89 | CC(C)C[C@H](NC(=O)[C@H](CC(=O)O)NC(=O)CCCOc1ccc(C(=N)N)cc1)C(=O)O [(S)-2-{(S)-2-[4-(4-Carbamimidoyl-phenoxy)-butyrylamino]-3-carboxy-propionylamino}-4-methyl-pentanoic acid] |
| 6.64 | CC(C)(C)[C@H](NC(=O)[C@H](CC(=O)O)NC(=O)CCCOc1ccc(C(=N)N)cc1)C(=O)O |
| 6.92 | CN(C(=O)[C@H](CC(=O)O)NC(=O)CCCOc1ccc(C(=N)N)cc1)[C@@H](Cc1ccc(O)cc1)C(=O)O [(S)-3-[4-(4-Carbamimidoyl-phenoxy)-butyrylamino]-N-[(S)-1-carboxy-2-(4-hydroxy-phenyl)-ethyl]-N-methyl-succinamic acid] |
